Results as given in patent publication US20160106439A1, “PNEUMATIC TOURNIQUET” (BIONUMERIK PHARMACEUTICALS, INC., priority 2013, published 2016).

Columns and labels:
[1] = target: T1, Recombinant human peroxiredoxin 1 (Homo sapiens, UniProt Q06830); assay: Tavocept-derived mesna adducts on Prx 1 (digest, LC-MS); assay type: binding
T1 construct: purchased SigmaAldrich
T1 sequence (Q06830 1-199): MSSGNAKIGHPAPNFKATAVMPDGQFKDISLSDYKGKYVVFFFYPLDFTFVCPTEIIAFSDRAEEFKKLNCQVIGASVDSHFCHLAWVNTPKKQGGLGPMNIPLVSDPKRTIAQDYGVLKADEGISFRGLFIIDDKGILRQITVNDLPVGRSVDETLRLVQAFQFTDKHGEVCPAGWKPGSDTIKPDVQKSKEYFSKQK
Description: Recombinant human peroxiredoxin 1 (purchased from SigmaAldrich; 333 μg; 0.015 micromoles) was reduced using an excess of dithiothreitol (DTT; 35 micromoles) in NH4HCO3 buffer (40 mM, pH 8.0) at 37° C. for 50 minutes (total reaction volume was 750 μL; final Prx concentration was 20 μM; and final DTT concentration was 46 mM). […] (total reaction volume was 500 μL). After 16-18 hours incubation, each reaction was removed and chromatographed using G25 Sephadex columns.
In brief, the G25 chromatographed Prx1 incubation reactions were digested with Trypsin Gold. Trypsin Gold was dissolved in 400 μL of NH4HCO3 and 100 μL of acetonitrile. A 100-150 μL volume of this Trypsin Gold stock was then added to 500 μL of the aforementioned final sample with 75 μL of acetonitrile and then the reaction volume was adjusted to a total of 750 μL with NH4HCO3. The sample was incubated for 6 hours at 37° C. Chymotrypsin digests were by dissolving chymotrypsin in 1M HCL. A 50 μL volume of this chymotrypsin stock solution was added to added to 500 μL of the aforementioned final sample along with 10% (v/v) of CaCl2 (100 mM stock). NH4HCO3 buffer was then added to bring the total reaction volume to 750 μL. Chymotrypsin digests were incubated for 16 hours at 30° C. Following digest by either trypsin or chymotrypsin, reactions were lyophilized to dryness overnight and then resuspended in a minimal amount of HPLC grade water prior to LC MS analyses.
A Symmetry C18 HPLC column (Waters, Franklin, Mass.; 3.5 μm; 4.6×75 mm) and a Waters Alliance liquid chromatography system (Waters 2695; Franklin, Mass.) coupled to a Micromass single quadropole mass detector (Micromass ZMD; Manchester, UK) were used to analyze fragments from trypsin or chymotrypsin digested human Prx1. The mobile phase contained 0.1% of formic acid throughout the run and the flow rate was 0.35 ml/min. […]

WT EGFR kinase = WT EGFR kinase (Homo sapiens, UniProt P00533)
[2] = target: human peroxiredoxin 4 (PRX4) (Homo sapiens, UniProt Q13162); assay: Tavocept-derived mesna adducts on Prx 4 (MS, X-ray crystallography)
IGF1R = IGF1R (Homo sapiens, UniProt P08069); assay: IGF1R kinase assay (ADP-glo) after pre-incubation; assay type: biochemical
Description: Prior to initiating the IGF1R kinase assays, IGF1R was incubated with Tavocept-IGF1R kinase phosphorylated the IGF1Rtide substrate using the ATP cofactor and produced ADP. The assays in half area 96-well microtiter plates were 10 μL in volume and contained IGF1R (4 ng total or 0.4 ng/μL), ATP (100 μM), IGF1Rtide substrate ([…]), and the concentrations of the various test articles as indicated. Additionally, kinase assay buffer was added to achieve a final reaction volume of 10 μL per assay. IGF1R kinase reactions were incubated for 60 minutes at 25° C. in a water bath. Following this 60 minute incubation, reactions were transferred to microplates and the kinase activity was evaluated using the ADP-glo system from Promega (this system monitors ADP produced when IGF1R phosphorylates the IGF1Rtide substrate).

[3] = target: T2, Mesenchymal Epithelial Transition (MET) Factor Kinase (Homo sapiens, UniProt P08581); assay: MET kinase inhibition (summary Table 27); assay type: biochemical; details: modification of non-active site cysteine(s)
T2 construct: the kinase domain of MET (residues 956-end) was used in these experiments; purchased SignalChem M52-18G-10; host or cells: Sf9 insect cells

TrxR/Trx system = target: T3, TrxR/Trx system (Homo sapiens, UniProt P10599); assay: NADPH oxidation by TrxR and Trx; assay type: biochemical; details: increasing concentrations of the substance
T3 construct: 6xHis (N); purchased Sigma (Trx); American Diagnostica (bovine TrxR)
T3 sequence (P10599 1-105): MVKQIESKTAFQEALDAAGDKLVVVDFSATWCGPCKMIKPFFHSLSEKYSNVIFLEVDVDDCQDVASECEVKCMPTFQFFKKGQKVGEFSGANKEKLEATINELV

Chain of IGF1R (P08069 31-1367): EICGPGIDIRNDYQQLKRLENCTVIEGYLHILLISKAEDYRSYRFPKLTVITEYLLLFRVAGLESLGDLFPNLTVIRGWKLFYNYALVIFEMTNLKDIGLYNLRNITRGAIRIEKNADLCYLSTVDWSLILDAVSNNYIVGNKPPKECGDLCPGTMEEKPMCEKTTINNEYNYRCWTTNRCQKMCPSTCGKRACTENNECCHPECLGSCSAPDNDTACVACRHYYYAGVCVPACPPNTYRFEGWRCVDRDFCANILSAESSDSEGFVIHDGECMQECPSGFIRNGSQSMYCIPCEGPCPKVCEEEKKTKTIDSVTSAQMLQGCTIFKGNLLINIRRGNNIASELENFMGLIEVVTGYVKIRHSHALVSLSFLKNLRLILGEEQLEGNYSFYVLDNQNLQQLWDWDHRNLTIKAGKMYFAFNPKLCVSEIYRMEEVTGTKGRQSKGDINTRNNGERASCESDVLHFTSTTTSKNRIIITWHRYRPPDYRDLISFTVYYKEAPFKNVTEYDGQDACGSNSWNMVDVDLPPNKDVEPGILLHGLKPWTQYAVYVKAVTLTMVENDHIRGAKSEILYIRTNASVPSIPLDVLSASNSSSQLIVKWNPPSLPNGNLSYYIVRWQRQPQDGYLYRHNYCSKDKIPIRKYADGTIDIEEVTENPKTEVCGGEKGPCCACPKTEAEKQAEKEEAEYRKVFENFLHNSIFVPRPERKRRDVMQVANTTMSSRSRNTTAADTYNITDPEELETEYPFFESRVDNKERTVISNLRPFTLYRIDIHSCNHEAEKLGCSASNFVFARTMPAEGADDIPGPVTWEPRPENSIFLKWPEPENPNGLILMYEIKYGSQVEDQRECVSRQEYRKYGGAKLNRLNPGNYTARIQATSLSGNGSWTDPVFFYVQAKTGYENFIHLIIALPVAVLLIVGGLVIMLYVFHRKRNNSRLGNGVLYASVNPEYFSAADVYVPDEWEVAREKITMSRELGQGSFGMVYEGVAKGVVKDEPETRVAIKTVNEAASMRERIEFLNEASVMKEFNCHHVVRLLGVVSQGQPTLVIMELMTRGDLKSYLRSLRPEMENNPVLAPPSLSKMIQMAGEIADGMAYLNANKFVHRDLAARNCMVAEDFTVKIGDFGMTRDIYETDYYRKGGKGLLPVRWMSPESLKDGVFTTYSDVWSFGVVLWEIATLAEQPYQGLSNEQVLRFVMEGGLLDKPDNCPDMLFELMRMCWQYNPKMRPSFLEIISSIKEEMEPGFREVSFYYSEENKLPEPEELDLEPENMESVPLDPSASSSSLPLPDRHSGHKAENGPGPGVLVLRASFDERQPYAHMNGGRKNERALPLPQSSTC
Chain of human peroxiredoxin 4 (PRX4) (Q13162 79-271 limits assumed): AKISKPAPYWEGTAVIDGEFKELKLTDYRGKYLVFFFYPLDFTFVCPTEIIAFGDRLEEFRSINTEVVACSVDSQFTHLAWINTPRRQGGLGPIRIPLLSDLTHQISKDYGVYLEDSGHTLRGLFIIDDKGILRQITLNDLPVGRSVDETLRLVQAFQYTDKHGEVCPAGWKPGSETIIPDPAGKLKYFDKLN
Chain of WT EGFR kinase (P00533 25-1210): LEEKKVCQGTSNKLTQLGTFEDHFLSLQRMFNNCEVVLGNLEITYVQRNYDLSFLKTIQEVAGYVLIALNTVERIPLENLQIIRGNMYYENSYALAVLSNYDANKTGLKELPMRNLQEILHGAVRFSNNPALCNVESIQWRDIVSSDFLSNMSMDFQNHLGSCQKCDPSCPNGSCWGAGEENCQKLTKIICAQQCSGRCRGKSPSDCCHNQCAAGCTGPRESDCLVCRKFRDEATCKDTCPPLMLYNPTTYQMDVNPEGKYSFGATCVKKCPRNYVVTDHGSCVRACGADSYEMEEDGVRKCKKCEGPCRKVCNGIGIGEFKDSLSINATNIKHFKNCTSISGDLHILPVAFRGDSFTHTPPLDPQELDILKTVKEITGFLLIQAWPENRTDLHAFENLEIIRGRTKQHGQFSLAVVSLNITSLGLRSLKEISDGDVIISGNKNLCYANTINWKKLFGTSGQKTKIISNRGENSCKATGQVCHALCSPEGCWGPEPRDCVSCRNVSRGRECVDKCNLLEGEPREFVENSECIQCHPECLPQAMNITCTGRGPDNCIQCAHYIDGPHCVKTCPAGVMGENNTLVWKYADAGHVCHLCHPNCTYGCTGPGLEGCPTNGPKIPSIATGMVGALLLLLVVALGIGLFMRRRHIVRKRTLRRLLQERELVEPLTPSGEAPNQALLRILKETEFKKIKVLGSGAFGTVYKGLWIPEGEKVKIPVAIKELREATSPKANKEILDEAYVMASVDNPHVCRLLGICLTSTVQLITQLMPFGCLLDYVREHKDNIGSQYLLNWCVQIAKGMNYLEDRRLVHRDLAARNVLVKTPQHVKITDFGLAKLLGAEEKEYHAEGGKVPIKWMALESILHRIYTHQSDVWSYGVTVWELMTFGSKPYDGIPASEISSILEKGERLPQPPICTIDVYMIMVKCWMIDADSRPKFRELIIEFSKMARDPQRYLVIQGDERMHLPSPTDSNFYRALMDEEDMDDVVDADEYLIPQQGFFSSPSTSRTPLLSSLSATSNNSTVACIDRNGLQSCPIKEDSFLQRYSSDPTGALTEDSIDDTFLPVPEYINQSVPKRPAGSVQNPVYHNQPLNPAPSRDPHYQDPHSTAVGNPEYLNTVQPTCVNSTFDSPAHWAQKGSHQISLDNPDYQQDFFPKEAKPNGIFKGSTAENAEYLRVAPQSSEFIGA
T2 sequence (P08581 956-1390 limits assumed): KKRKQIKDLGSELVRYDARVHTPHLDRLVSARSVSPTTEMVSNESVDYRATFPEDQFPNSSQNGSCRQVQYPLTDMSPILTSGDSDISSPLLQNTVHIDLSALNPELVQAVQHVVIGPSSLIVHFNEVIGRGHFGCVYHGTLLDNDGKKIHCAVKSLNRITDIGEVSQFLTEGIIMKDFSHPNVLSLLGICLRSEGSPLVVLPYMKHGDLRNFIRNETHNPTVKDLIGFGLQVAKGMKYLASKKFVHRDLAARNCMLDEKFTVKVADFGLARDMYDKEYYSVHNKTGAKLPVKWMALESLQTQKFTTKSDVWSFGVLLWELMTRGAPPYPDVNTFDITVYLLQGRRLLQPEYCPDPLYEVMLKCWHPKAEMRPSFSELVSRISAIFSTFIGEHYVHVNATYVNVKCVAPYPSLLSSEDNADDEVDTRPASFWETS

SMILES: O=S(=O)([O-])CCSSCCS(=O)(=O)[O-].[Na+].[Na+] [Tavocept, disodium 2,2′-dithio-bis-ethane sulfonate]
- Tavocept-derived mesna Adduct detected? ([1]; chymotryptic fragment TDKHGEVCPAGW (Cys 173) of human Prx 1): Yes
- Tavocept-derived mesna Adduct detected? ([1]; chymotryptic fragment VCPTEIIAF (Cys 52) of human Prx 1): Yes
- Tavocept-derived mesna Adduct detected? ([1]; tryptic fragment HGEVCPAGWK (Cys 173) of human Prx 1): Yes
- inhibition (WT EGFR kinase): 9%
- number of Tavocept-derived mesna moieties on Prx 4 ([2]; Mass Spectroscopy after reaction with Tavocept): 2
- Prx 4 cysteine bound by Tavocept-derived mesna moiety ([2]; X-ray, 2.3 Å, 40 mM Tavocept): Cys124
- loss of IGF1R kinase activity (IGF1R; 20 mM Tavocept pre-incubated with IGF1R for 24 hours, 100 μM ATP): approximately 33%
- loss of IGF1R kinase activity (IGF1R; other concentrations and pre-incubation times): ≤ 10%
- Effect on MET [3]: resulting in enzyme inhibition (MET).
- NADPH oxidation by TrxR and Trx (TrxR/Trx system): increases
